Test results: patent US8163729B2 (Wyeth, priority 2007, dated 2012)
Where a name gives a salt, the structure may show the parent alone. Blank lines part the entries; values can stand above or below the compound they belong to.

What was measured:
[1] = hygroscopicity / Dynamic Vapor Sorption (DVS) of hydrochloride salt crystal forms; format: physicochemical; details: for hygroscopicity (Crystal Form Table) / hygroscopicity: hydrochloride salt crystal forms; for water absorbed eventually: 90% RH
Protocol: Dynamic Vapor Sorption (DVS) was done at 26° C.

[2] = target: T1, alpha7 nicotinic acetylcholine receptor (Rattus norvegicus, UniProt Q05941); experiment: functional FLIPR assay, alpha7 nAChR stably expressed in GH4C1 cells; format: cell-based; details: agonist, concentration range 0.001 to 30 microM
T1 construct: expressed in transfected cells

[3] = solubility in water of hydrochloride salt crystal forms; format: physicochemical

T1 sequence (Q05941 23-502): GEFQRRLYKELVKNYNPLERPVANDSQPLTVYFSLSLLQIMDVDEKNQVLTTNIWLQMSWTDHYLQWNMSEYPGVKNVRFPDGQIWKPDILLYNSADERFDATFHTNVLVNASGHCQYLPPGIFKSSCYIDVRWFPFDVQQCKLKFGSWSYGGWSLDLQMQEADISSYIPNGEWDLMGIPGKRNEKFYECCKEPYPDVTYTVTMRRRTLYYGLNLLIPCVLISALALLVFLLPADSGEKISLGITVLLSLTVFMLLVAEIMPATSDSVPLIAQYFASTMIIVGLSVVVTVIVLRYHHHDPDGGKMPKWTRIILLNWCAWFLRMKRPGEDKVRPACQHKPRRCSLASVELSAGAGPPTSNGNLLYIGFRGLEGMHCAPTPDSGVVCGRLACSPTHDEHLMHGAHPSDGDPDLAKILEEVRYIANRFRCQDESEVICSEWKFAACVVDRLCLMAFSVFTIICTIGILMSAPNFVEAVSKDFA

SMILES: COc1ccc(-c2cc(NC(=O)CCCCN3CCCN(C(C)=O)CC3)[nH]n2)cc1 (as salt: hydrochloric acid salt) [5-(4-Acetyl-[1,4]diazepan-1-yl)-pentanoic acid [5-(4-methoxy-phenyl)-2H-pyrazol-3-yl]-amide]
melting point: 185 °C

SMILES: COc1ccc(-c2cc(NC(=O)CCCCN3CCCN(C(C)=O)CC3)[nH]n2)cc1 (as salt: hydrochloride) [Example 4, 5-(4-Acetyl-[1,4]diazepan-1-yl)-pentanoic acid [5-(4-methoxy-phenyl)-2H-pyrazol-3-yl]-amide]
melting point: 132 to 133 °C

SMILES: C[N+]1(C)CCN(c2ccccc2)CC1 [DMPP]
EC50 [2]: 980 ± 470 nM

SMILES: COc1ccc(-c2cc(NC(=O)CCCCN3CCCN(C(C)=O)CC3)n[nH]2)cc1.Cl [Form I, 5-(4-acetyl-1,4-diazepan-1-yl)-N-(5-(4-methoxyphenyl)-1H-pyrazol-3-yl)pentanamide hydrochloric salt Form I]
water absorbed eventually ([1]; DVS at 26° C.): up to 2%
relative humidity at which the form picks up moisture ([1]; DVS at 26° C.): about 50%
moisture gain ([1]; at 70-100% RH, lost without significant hysteresis on decreasing RH): at least 12%
moisture gain ([1]; equilibrated at RH less than or equal to 70%): about 0.5%
hygroscopicity [1]: relatively non-hygroscopic
solubility in water [3]: considerably soluble in water

SMILES: COc1ccc(-c2cc(NC(=O)CCCCN3CCCN(C(C)=O)CC3)n[nH]2)cc1.Cl [mono-HCl salt, 5-(4-Acetyl-[1,4]diazepan-1-yl)-pentanoic acid [5-(4-methoxy-phenyl)-1H-pyrazol-3-yl]-amide (mono hydrochloride salt)]
form change after DVS test [1]: NO form change

Further lines, results first:

hygroscopicity (Crystal Form Table) [1]: Hygroscopic
SMILES: COc1ccc(-c2cc(NC(=O)CCCCN3CCCN(C(C)=O)CC3)[nH]n2)cc1 [Crystal Form III, 5-(4-Acetyl-[1,4]diazepan-1-yl)-pentanoic acid [5-(4-methoxy-phenyl)-2H-pyrazol-3-yl]-amide]

water uptake ([1]; at RH 50%): (7% at RH
hygroscopicity (Crystal Form Table) [1]: Hygroscopic
SMILES: COc1ccc(-c2cc(NC(=O)CCCCN3CCCN(C(C)=O)CC3)[nH]n2)cc1 [Crystal Form V, 5-(4-Acetyl-[1,4]diazepan-1-yl)-pentanoic acid [5-(4-methoxy-phenyl)-2H-pyrazol-3-yl]-amide]

water absorbed eventually ([1]; DVS at 26° C.): up to 7%
relative humidity at which the form picks up moisture ([1]; DVS at 26° C.): about 20%
water held at low RH ([1]; RH 0%, DVS at 26° C.): 2%
hygroscopicity [1]: non-hygroscopic
solubility in water [3]: considerably soluble in water
SMILES: COc1ccc(-c2cc(NC(=O)CCCCN3CCCN(C(C)=O)CC3)n[nH]2)cc1.Cl [Form II, 5-(4-acetyl-1,4-diazepan-1-yl)-N-(5-(4-methoxyphenyl)-1H-pyrazol-3-yl)pentanamide hydrochloric salt Form II]
